Results taken from patent US6518278B1, “Carcinostatic substance for compatible administration, process of administrating same and process of rapidly inspecting same” (Debio Pharm S.A., priority 1994, dated 2003).
“Also recorded” adds a separate entry of the source. Like-named read-outs stand apart in the source and are kept apart here.

Assays:
[1] = system: living cells; details: dye bonded to the cell; inventor's earlier meeting article (1990); cited from earlier work
[2] = system: living cells; assay: Fluorescence dye bonded to living cells: does the cell stay alive; assay type: cell-based
Description: As the said fluorescence dye, the above DAPI can be employed. Although the DAPI itself is known, the use for the observation of the cell division while keeping the cells alive is unknown. The present inventors have investigated such fluorescence dye as Hoechst 33258, acridine orange and acridine yellow other than the DAPI.

[3] = system: human leutecyte strain cell (RPMI-8402); assay: Extinction effect of compatible administration of l-OHP and a compatible agent on tumor cells (compatible efficiency OE); assay type: cell-based; details: for Compatible Effects of l-OHP and Compatible Agent, Simultaneous Administration: both added day 1
In short: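 RPMI-8402 cells (10^6/ml, 15% fetal bovine serum) got l-OHP (5 or 1 μg/ml) with a partner agent at high or low dose (e.g. cisplatin 1 or 0.5, 5-FU 10 or 5 μg/ml; irinotecan fixed at 10 μg/ml) on the same day or staggered days 1–4 in either order. Cell kill was corrected for the untreated control. A combination index of 85–115% was scored additive, >115% synergistic.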

[4] = system: K 562 parent cells (human bone marrow leukemia); assay: Extinction rate, OR 36-3 and cisplatin, K 562 parent cells; assay type: cell-based; details: 2 μg/ml of the cisplatin, single
Protocol: (§1) The extinction rates were measured in accordance with the same procedures of Example 2 except that K 562 parent cells (human bone marrow leukemia) and its cisplatin resistance cells (K652/CDDP) were employed in place of the human leutecyte strain cell employed in Comparative Example 1 and Example 2, and cisplatin was employed in place of the vincristin.

[5] = system: cisplatin resistance cells (K652/CDDP); assay: Extinction rate, OR 36-3 and cisplatin, cisplatin resistance cells; assay type: cell-based, human; details: 5 μg/ml of the cisplatin, single; resistance cells versus K 562 parent cells
Protocol: as §1

[6] = system: human leutecyte strain cells (RPMI-8402); assay: Rapid inspection of carcinostatic substances by counting divided cells with DAPI; assay type: cell-based
Protocol: After over a certain number of cancer cells are prepared by cultivation, a carcinostatic substance is added to the cancer cells. The number of the cells under the cell division at the respective measuring times is counted while continuing the cultivation. […] Accordingly, the effectiveness of the carcinostatic substance can be inspected by counting the number of the cells under the cell division among a certain number (for example, one thousand) of cells several times, comparing the said number with that of the former counting or the previous counting thereof and grasping the progress of the cell division by means of the increase or the decrease of the above comparison. If the DAPI is added with the carcinostatic substance during this procedure, the accurate counting of the number of the divided cells can be performed because the cells under the any phase of the cell division can be recognized. When the number of the divided cells decreases as a result of the comparison between the measurement values, it is judged that the multiplication of the cancer cells is depressed, or the function of the carcinostatic substance is performed. When, on the other hand, the number of the divided cells increases compared with the control, a certain function of the carcinostatic substance is judged to be performed. […] To the respective cultivation liquids were added, together with 1 μg/ml of the DAPI, (1) the control (no addition of the carcinostatic substance), (2) 5 μg/ml of CPT (camptotecin), (3) 10 μg/ml of CPT-11 ([…]), (4) 0.06 μg/ml of ADR (adriamycin), (5) 0.05 μg/ml of DNR (daunomycin), (6) 1 μ/ml of etoposide, (7) 20 μg/ml of MST-16 (sopsoxane), (8) 1 μg/ml of […]), (9) μg/ml of Act-D (actinomycin D), (10) 0.1 μg/ml of mitoxantrone. (11) 20 μg/ml of 5-FU, (12) 10 μg/ml of Ara-C (cytosinarabinoside) (13) 50 μg/ml of hydroxyurea, (14) 2 μg/ml of Aphidicolin, (15) 10 μg/ml of MTX (mesotroxate), (16) 0.05 μg/ml of VCR (vincristin), (17) 0.05 μg/ml of […]). (5) μg/ml of cisplatin, (18) 10 μg/ml of bleomycin, (20)10 μg/ml of MMC (mitomycin C) and (21) 5 μg/ml of cyclophospamide (endoxane). The samples were sampled from the respective cultivation liquids after one hour, […], 24 hours and then every 24 hour from the initiation of the cultivation. The samples were evaluated in accordance with the procedures of the preceding Examples. The results are shown in a graph of FIG. 15.

[7] = larger dosage of compatible agent (μg/ml: cisplatin 1, 5-FU 10, irinotecane 10, adriamycin 0.05, vincristin 0.05, vindecin 0.05, etoposide 1, bleomycin 10, mitoxantrone 0.1, mitomycine 1), l-OHP 1 μg/ml (5 μg/ml with irinotecane) added day 1
[8] = larger dosage of compatible agent (μg/ml: cisplatin 1, 5-FU 10, irinotecane 10, adriamycin 0.05, vincristin 0.05, vindecin 0.05, etoposide 1, bleomycin 10, mitoxantrone 0.1, mitomycine 1), l-OHP 1 μg/ml (5 μg/ml with irinotecane)
[9] = larger dosage of compatible agent added day 1 (μg/ml: cisplatin 1, 5-FU 10, irinotecane 10, adriamycin 0.05, vincristin 0.05, vindecin 0.05, etoposide 1, bleomycin 10, mitoxantrone 0.1, mitomycine 1), l-OHP 1 μg/ml (5 μg/ml with irinotecane)
[10] = smaller dosage of compatible agent (μg/ml: cisplatin 0.5, 5-FU 5, irinotecane 10, adriamycin 0.01, vincristin 0.01, vindecin 0.01, etoposide 0.5, bleomycin 1, mitoxantrone 0.05, mitomycine 0.5), l-OHP 1 μg/ml added day 1
[11] = smaller dosage of compatible agent (μg/ml: cisplatin 0.5, 5-FU 5, irinotecane 10, adriamycin 0.01, vincristin 0.01, vindecin 0.01, etoposide 0.5, bleomycin 1, mitoxantrone 0.05, mitomycine 0.5), l-OHP 1 μg/ml
[12] = smaller dosage of compatible agent added day 1 (μg/ml: cisplatin 0.5, 5-FU 5, irinotecane 10, adriamycin 0.01, vincristin 0.01, vindecin 0.01, etoposide 0.5, bleomycin 1, mitoxantrone 0.05, mitomycine 0.5), l-OHP 1 μg/ml

Row | SMILES | toxicity of fluorescence dye to the cell [2] | compatible administration effect with l-OHP, summary in words [3] | Compatible Effects of l-OHP and Compatible Agent, Time Lag Administration, Addition Administration of Compatible Agent day 2 [3, 7] | Compatible Effects of l-OHP and Compatible Agent, Time Lag Administration, Addition Administration of Compatible Agent day 3 [3, 7] | Compatible Effects of l-OHP and Compatible Agent, Time Lag Administration, Addition Administration of Compatible Agent day 4 [3, 7] | Compatible Effects of l-OHP and Compatible Agent, Simultaneous Administration [3, 8] | Compatible Effects of l-OHP and Compatible Agent, Time Lag Administration, Addition Administration of l-OHP day 2 [3, 9] | Compatible Effects of l-OHP and Compatible Agent, Time Lag Administration, Addition Administration of l-OHP day 3 [3, 9] | Compatible Effects of l-OHP and Compatible Agent, Time Lag Administration, Addition Administration of l-OHP day 4 [3, 9] | Compatible Effects of l-OHP and Compatible Agent, Time Lag Administration, Addition Administration of Compatible Agent day 2 [3, 10] | Compatible Effects of l-OHP and Compatible Agent, Time Lag Administration, Addition Administration of Compatible Agent day 3 [3, 10] | Compatible Effects of l-OHP and Compatible Agent, Time Lag Administration, Addition Administration of Compatible Agent day 4 [3, 10] | Compatible Effects of l-OHP and Compatible Agent, Simultaneous Administration [3, 11] | Compatible Effects of l-OHP and Compatible Agent, Time Lag Administration, Addition Administration of l-OHP day 2 [3, 12] | Compatible Effects of l-OHP and Compatible Agent, Time Lag Administration, Addition Administration of l-OHP day 3 [3, 12] | Compatible Effects of l-OHP and Compatible Agent, Time Lag Administration, Addition Administration of l-OHP day 4 [3, 12] | further results
1 | Cl.Cl.N=C(N)c1ccc(-c2cc3ccc(C(=N)N)cc3[nH]2)cc1 [DAPI, 4′,6-diamidino-2-phenylindole•2HCl] |  |  |  |  |  |  |  |  |  |  |  |  |  |  |  |  | effect of fluorescence dye on living cells [1]: without extinguishing the cells
2 | CN1CCN(c2ccc3[nH]c(-c4ccc5[nH]c(-c6ccc(O)cc6)nc5c4)nc3c2)CC1 [Hoechst 33258] |  |  |  |  |  |  |  |  |  |  |  |  |  |  |  |  | toxicity of fluorescence dye to the cell ([2]; dye bonded to living cells): toxicity is too strong to keep the cell alive
3 | CN(C)c1ccc2cc3ccc(N(C)C)cc3nc2c1 [acridine orange] | toxicity is too strong to keep the cell alive |  |  |  |  |  |  |  |  |  |  |  |  |  |  |  | 
4 | Cc1cc2cc3cc(C)c(N)cc3nc2cc1N [acridine yellow] | toxicity is too strong to keep the cell alive |  |  |  |  |  |  |  |  |  |  |  |  |  |  |  | 
5 | N.N.[Cl][Pt][Cl] [cisplatin] |  | the additive effect or the synergistic effect regardless of the administration method and the dosage in almost all the cases; also recorded: synergistic effects can be obtained in all the cases when the cisplatin and the l-OHP are simultaneously administrated and the l-OHP is administrated before the cisplatin; also recorded: effect about twice the expected value is obtained in most cases when the l-OHP administration is preceded and the cisplatin is added later | • (•: Synergistic Effect) | • (•: Synergistic Effect) | • (•: Synergistic Effect) | • (•: Synergistic Effect) | • (•: Synergistic Effect) | ◯ (◯: Additive Effect) | ◯ (◯: Additive Effect) | • (•: Synergistic Effect) | • (•: Synergistic Effect) | • (•: Synergistic Effect) | ◯ (◯: Additive Effect) | Δ (Δ: Below Additive Effect) | Δ (Δ: Below Additive Effect) | Δ (Δ: Below Additive Effect) | extinction rate of the parent cells relative to that of the resistance cells [4]: about twice; extinction rates against the parent cells and the resistance cells compared [5]: substantially the same as each other
6 | CC[C@]1(O)C[C@@H]2CN(CCc3c([nH]c4ccccc34)[C@@](C(=O)OC)(c3cc4c(cc3OC)N(C)[C@H]3[C@@](O)(C(N)=O)[C@H](O)[C@]5(CC)C=CCN6CC[C@]43[C@@H]65)C2)C1 [vindecin] |  | the additive effect at best; also recorded: no synergistic effects can be obtained in all the 14 combinations and the additive effects can be obtained in only three combinations | Δ (Δ: Below Additive Effect) | Δ (Δ: Below Additive Effect) | Δ (Δ: Below Additive Effect) | ◯ (◯: Additive Effect) | ◯ (◯: Additive Effect) | Δ (Δ: Below Additive Effect) | Δ (Δ: Below Additive Effect) | Δ (Δ: Below Additive Effect) | Δ (Δ: Below Additive Effect) | ◯ (◯: Additive Effect) | Δ (Δ: Below Additive Effect) | Δ (Δ: Below Additive Effect) | Δ (Δ: Below Additive Effect) | Δ (Δ: Below Additive Effect) | number of the divided cells compared with the control (FIG. 15) ([6]; 0.05 μg/ml VCR, 0.05 μg/ml VDS, 20 μg/ml MST-16, with 1 μg/ml DAPI): remarkable increases of the numbers of the divided cells; division phases of the divided cells (microscope observation) ([6]; ratio of the divided cells increased after the initiation of the cultivation, no anaphase or telophase cells observed): the division prophase and the division metaphase
